Data published in the NIST ThermoML archive (doi:10.1016/j.jct.2010.08.010).

Conditions: Liquid, Buoyancy - hydrostatic balance with magnetic suspension - one sinker

Cc1ccccc1 [toluene]
Conditions | mass density [kg/m3]
413.15 K, 4038.3 kPa | 754.503
413.15 K, 6026.6 kPa | 757.773
413.15 K, 8189.1 kPa | 761.18
413.15 K, 9852 kPa | 763.702
413.15 K, 12117 kPa | 767.016
413.15 K, 14168 kPa | 769.904
413.15 K, 16108 kPa | 772.544
413.15 K, 18095 kPa | 775.165
413.15 K, 20104 kPa | 777.733
413.15 K, 22152 kPa | 780.275
413.15 K, 24009 kPa | 782.518
413.15 K, 25996 kPa | 784.857
413.15 K, 27793 kPa | 786.922
413.15 K, 29815 kPa | 789.193
433.15 K, 1101.8 kPa | 726.984
433.15 K, 1976.7 kPa | 728.858
433.15 K, 4084.4 kPa | 733.177
433.15 K, 6154.5 kPa | 737.18
433.15 K, 8078.7 kPa | 740.731
433.15 K, 9952.6 kPa | 744.032
433.15 K, 11980 kPa | 747.451
433.15 K, 13969 kPa | 750.677
433.15 K, 16091 kPa | 753.964
433.15 K, 17961 kPa | 756.765
433.15 K, 19890 kPa | 759.561
433.15 K, 22082 kPa | 762.624
433.15 K, 24002 kPa | 765.215
433.15 K, 26049 kPa | 767.899
433.15 K, 27836 kPa | 770.185
433.15 K, 29993 kPa | 772.844
453.15 K, 1107.5 kPa | 703.102
453.15 K, 2037.8 kPa | 705.548
453.15 K, 4185.3 kPa | 710.874
453.15 K, 6060.4 kPa | 715.218
453.15 K, 8005.2 kPa | 719.474
453.15 K, 9870.3 kPa | 723.328
453.15 K, 12115 kPa | 727.721
453.15 K, 14139 kPa | 731.482
453.15 K, 16027 kPa | 734.835
453.15 K, 17928 kPa | 738.09
453.15 K, 20153 kPa | 741.727
453.15 K, 22071 kPa | 744.756
453.15 K, 24057 kPa | 747.767
453.15 K, 26029 kPa | 750.661
453.15 K, 27966 kPa | 753.404
453.15 K, 29817 kPa | 755.955
473.15 K, 1104.4 kPa | 677.2
473.15 K, 2031.3 kPa | 680.289
473.15 K, 4033.8 kPa | 686.456
473.15 K, 6024.4 kPa | 692.111
473.15 K, 7930.8 kPa | 697.122
473.15 K, 10107 kPa | 702.459
473.15 K, 11931 kPa | 706.639
473.15 K, 13959 kPa | 711.045
473.15 K, 16004 kPa | 715.254
473.15 K, 17878 kPa | 718.918
473.15 K, 19844 kPa | 722.599
473.15 K, 22088 kPa | 726.587
473.15 K, 24074 kPa | 729.989
473.15 K, 26038 kPa | 733.203
473.15 K, 27840 kPa | 736.071
473.15 K, 29806 kPa | 739.091
